The text below walks through data of patent publication US11331299B2, “Medicinal use of serrulatane diterpenes” (The University of Sydney, priority 2016, dated 2022).

The test system of experiment [1] is IL-4 secretion from human CD4-positive T-cells stimulated with antiCD2/antiCD3/antiCD28-coated beads. Put plainly: T-cell IL-4 assay. The experiment is classed as cell-based.
Experiment [2] has as its system Toll-like receptor 4 (TLR4) activation on human peripheral blood mononuclear cells (PBMC's). Put plainly: TLR4 inhibition assay, LPS-induced cytokine release. The experiment is classed as cell-based. The note with it: for IC50: Homo sapiens, PBMC, 24 h, 24-hour LPS stimulation.
Experiment [3] relates to IL-2 secretion from human CD4-positive T-cells stimulated with antiCD2/antiCD3/antiCD28-coated beads. Put plainly: T-cell IL-2 assay. The class given is cell-based.
The target of a further experiment is ASH1L (Homo sapiens, UniProt Q9NR48). As to conditions: read-out: Reference: IC50; cited from earlier work.
The target in another experiment is T1, EHMT1 (h) (Homo sapiens, UniProt Q9H9B1).
T1 sequence (Q9H9B1 1-1298): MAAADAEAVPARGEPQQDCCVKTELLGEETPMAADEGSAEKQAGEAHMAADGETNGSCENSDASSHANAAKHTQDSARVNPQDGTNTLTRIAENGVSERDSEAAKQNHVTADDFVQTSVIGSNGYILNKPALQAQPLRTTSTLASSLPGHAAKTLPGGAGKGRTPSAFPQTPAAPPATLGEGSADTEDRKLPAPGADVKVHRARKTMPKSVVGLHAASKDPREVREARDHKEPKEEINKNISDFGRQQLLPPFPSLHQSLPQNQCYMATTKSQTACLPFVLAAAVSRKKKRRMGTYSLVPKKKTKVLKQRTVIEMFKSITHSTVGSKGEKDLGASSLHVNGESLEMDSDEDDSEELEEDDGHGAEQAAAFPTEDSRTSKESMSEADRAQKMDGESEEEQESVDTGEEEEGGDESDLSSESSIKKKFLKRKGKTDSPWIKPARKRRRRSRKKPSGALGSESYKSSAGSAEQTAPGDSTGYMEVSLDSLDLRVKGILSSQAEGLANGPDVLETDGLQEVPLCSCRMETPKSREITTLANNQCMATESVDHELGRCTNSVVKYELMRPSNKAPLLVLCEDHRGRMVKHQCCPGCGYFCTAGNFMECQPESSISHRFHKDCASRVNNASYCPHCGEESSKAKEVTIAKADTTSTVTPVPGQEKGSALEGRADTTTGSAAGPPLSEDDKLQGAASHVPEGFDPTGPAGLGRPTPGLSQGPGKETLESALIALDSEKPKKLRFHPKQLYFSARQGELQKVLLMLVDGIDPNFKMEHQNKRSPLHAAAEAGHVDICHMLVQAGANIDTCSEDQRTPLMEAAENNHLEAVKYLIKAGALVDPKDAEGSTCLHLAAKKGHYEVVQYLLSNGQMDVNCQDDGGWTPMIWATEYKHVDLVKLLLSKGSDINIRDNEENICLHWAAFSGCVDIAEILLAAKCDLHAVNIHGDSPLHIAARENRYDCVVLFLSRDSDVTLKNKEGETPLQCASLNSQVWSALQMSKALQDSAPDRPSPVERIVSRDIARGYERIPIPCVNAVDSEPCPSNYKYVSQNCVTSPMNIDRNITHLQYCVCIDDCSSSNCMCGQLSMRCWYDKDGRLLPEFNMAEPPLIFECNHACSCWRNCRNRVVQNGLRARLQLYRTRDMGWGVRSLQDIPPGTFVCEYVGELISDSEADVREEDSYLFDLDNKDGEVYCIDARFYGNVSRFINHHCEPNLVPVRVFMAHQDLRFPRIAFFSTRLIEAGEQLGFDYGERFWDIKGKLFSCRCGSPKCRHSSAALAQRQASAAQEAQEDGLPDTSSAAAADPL
As to conditions: read-out: Reference: IC50; cited from earlier work.

In a further experiment the target is SETDB1 (h) (Homo sapiens, UniProt Q15047). As to conditions: read-out: Reference: (IC50 not given); cited from earlier work.
Another experiment has as its target hSMYD2 (Homo sapiens, UniProt Q9NRG4). As to conditions: read-out: Reference: (IC50 not given); cited from earlier work.

Like-named read-outs stand apart in the source and are kept apart here.

Broadly, the EC50 is the midpoint of the concentration-response curve. As usually defined, the IC50 is the concentration at which inhibition is half-maximal.

hSMYD2, sequence (Q9NRG4 whole entry): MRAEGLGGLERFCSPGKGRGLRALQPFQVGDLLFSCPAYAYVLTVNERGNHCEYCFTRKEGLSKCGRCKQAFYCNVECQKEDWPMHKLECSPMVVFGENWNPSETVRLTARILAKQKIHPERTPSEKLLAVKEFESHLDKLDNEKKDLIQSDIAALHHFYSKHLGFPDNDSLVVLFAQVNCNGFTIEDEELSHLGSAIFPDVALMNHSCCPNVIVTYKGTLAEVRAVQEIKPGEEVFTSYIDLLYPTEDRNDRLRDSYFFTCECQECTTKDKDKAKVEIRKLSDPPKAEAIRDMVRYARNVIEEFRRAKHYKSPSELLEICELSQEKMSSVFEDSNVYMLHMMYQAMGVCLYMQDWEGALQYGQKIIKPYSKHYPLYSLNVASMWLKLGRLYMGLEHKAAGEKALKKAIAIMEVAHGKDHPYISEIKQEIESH

Turning to `CC(C)=CCC[C@H](CO)[C@@H]1CC[C@@H](C)c2c1cc(C)c(O)c2O` [Compound 1, 7,8,18-trihydroxyserrulat-14-ene], the Emax in experiment [1] (read-out: Inhibition of IL-4 release, Max Effect) was found to be 100%; in experiment [3] (read-out: Inhibition of IL-2 release, Max Effect), 98%. For the same compound, the EC50 in experiment [1] (read-out: Inhibition of IL-4 release, Rel EC50) turned out to be 0.523 µM; in experiment [3] (read-out: Inhibition of IL-2 release, Rel EC50) it was 0.327 µM. Besides, the half-inhibitory concentration (IC50) is 6.6 µM in experiment [2] (read-out: IC50, LPS-induced IL-1β release); 8.8 µM in experiment [2] (read-out: IC50, LPS-induced IL-6 release); 4.3 µM in experiment [2] (read-out: IC50, LPS-induced IL-10 release); 8.9 µM in experiment [2] (read-out: IC50, LPS-induced TNFα release); 6.6 µM in experiment [2] (I-1β, human PBMC, read-out: LPS-induced cytokine IC50); 8.8 µM in experiment [2] (IL-6, human PBMC, read-out: LPS-induced cytokine IC50). Besides, the IC50 in experiment [2] (IL-10, human PBMC, read-out: LPS-induced cytokine IC50) worked out at 4.3 µM; in experiment [2] (TNF-α, human PBMC, read-out: LPS-induced cytokine IC50), 8.9 µM. In addition, in experiment [2] (top test concentration), the “inhibition of the secretion of all cytokines” value is listed as “moderate to strong inhibition”.
For the compound `Nc1ncnc2c1ncn2[C@@H]1O[C@H](CSCC[C@H](N)C(=O)O)[C@@H](O)[C@H]1O` [SAH], the IC50 at ASH1L was 9.1 µM; at EHMT1 (h) it was 0.18 µM; at SETDB1 (h) it was 1.8 µM; on hSMYD2 it was 0.16 µM.
